Reference: patent US12433670B2, “Systems and methods for treating cancer and/or augmenting organ function” (Autonomix Medical, Inc., priority 2013, dated 2025)

What was measured:
[1] = tested on: Pancreatic carcinoma cells (Mia PaCa2)
Experimental: (§1) The following, non-limiting example, is directed to treatment of cancer (e.g., pancreatic cancer), internal pain or neural mediated hyperplasia in organs (e.g., benign prostatic hyperplasia). Pancreatic carcinoma cells (Mia PaCa2) were injected into the head of the pancreas of 10 athymic nude mice (subjects). A bolus of ethanol (50-75 uL) was administered to the celiac ganglion and surrounding nerves of five of the mice (i.e., the EtOH ablation group). The remaining five subjects constitute the untreated control group.
The mice were tracked for 7 weeks post procedure. Tumor growth rates in all subjects were monitored via bioluminescent imaging with an in vivo imaging system, i.e., IVIS Spectrum (Xenogen), twice weekly during the experiment.
(§2) The metastases per group were assessed during necropsy.

[2] = tested on: Mia PaCa2 human pancreatic cancer cells
Experimental: The following non-limiting example is directed at the treatment of neurogenic pathways for tumor growth and metastasis of pancreatic ductal adenocarcinoma (PDAC). A control experiment was performed with 10 athymic nude mice. The 10 mice were surgically prepared under anesthesia, and the surgical site was cleaned with 75% ethanol solution. A dorsal incision was used to access the spleen, pancreas and associated arterial supply. Mia PaCa2 human pancreatic cancer cells were seeded into the pancreas of each mouse. In 5 of the mice, the celiac ganglion and surrounding nerves were ablated with ethanol. The surgical procedures were completed and the mice were returned to Plexiglass boxes for observation.
The animals were monitored for detectable sickness related behavior and tumor growth was monitored via in vivo bioluminescent imaging techniques (IVIS® imaging system). Animals were monitored for relative changes in the following criteria: detectable sickness-related behavior, hunching and postural changes, signs of tumor growth in the animals' back (visible lumps), increases in piloerection, changes in skin tone and character, and changes in voluntary movement levels and exploratory behavior.

[3] = 7 weeks; EtOH group vs control group
Experimental: as §1
The experiment was terminated at 7 weeks.
as §2

[4] = necropsy at 7 weeks, affected/total mice

overall size difference between subjects in the groups (FIG. 11c) [3]: no overall size difference
Compound: CCO [EtOH, ethanol]
median tumor size relative to the control group median tumor size ([1]; 3 weeks): less than 1%
tumor growth rate compared with the control arm (FIG. 11a) ([1]; 3 weeks post procedure, median subject of each group, ethanol 50-75 uL): substantially decreased
difference in bioluminescence between the median responders ([1]; 3 weeks post procedure, treatment arm vs control arm): ~100 ×
mean tumor size relative to the control group ([1]; 3 weeks, 1-sided, alpha=0.05, n=5, p=0.11): half
Occurrence of metastases by group: Liver [1, 4]: 0/5
Occurrence of metastases by group: Local invasion [1, 4]: 2/5
Occurrence of metastases by group: Stomach [1, 4]: 0/5
Occurrence of metastases by group: Spleen ([1]; necropsy at 7 weeks, affected/total mice, nerves from pancreas to spleen not treated): 4/5
incidence of metastases versus the untreated control group ([1]; necropsy at 7 weeks, including non-responder sub-group): considerably lower
tumor mass versus subjects of the control group ([1]; subjects with ablated peri-pancreatic nerves, overall): less tumor mass
skin tone and movement versus the control mice ([2]; 2 weeks post-surgery, celiac ganglion and surrounding nerves ablated with ethanol, n=5): improved skin tone and movement
average tumor size relative to the average tumor size in the control group (IVIS luciferase ROI imaging) ([2]; 3 weeks, experimental group vs control group): 55%
